Reference: ChEMBL document CHEMBL3526102, “Biotransformation of two β-secretase inhibitors including ring opening and contraction of a pyrimidine ring” (Drug Metab Dispos, 2013)

Tests used:
[1] = system: Hepatocyte; assay: Drug level in Sprague-Dawley rat hepatocytes treated with [14C]-AZD3839 at 5 uM after 120 mins by LC-MS analysis; assay type: ADME, cell-based; details: 2 h
[2] = system: Hepatocyte; assay: Drug level in human hepatocytes treated with [14C]-AZD3839 at 5 uM after 120 mins by LC-MS analysis; assay type: ADME, cell-based; details: 2 h
[3] = system: Liver microsome; assay: Drug level in human liver microsomes treated with (S)-1-pyridin-4-yl-4-fluoro-1-(3-(pyrimidin-5-yl)phenyl)-1H-isoindol-3-amine at 1 uM after 30 mins by LC-MS analysis; assay type: ADME; details: 0.5 h
[4] = system: Plasma; assay: Drug level in bile duct-cannulated Sprague-Dawley rat plasma treated with (S)-1-pyridin-4-yl-4-fluoro-1-(3-(pyrimidin-5-yl)phenyl)-1H-isoindol-3-amine at 30 umol/kg, iv after 6 hrs by LC-MS analysis; assay type: ADME, organism-based; details: in vivo
[5] = system: Liver microsome; assay: Drug level in Sprague-Dawley rat liver microsomes treated with (S)-1-pyridin-4-yl-4-fluoro-1-(3-(pyrimidin-5-yl)phenyl)-1H-isoindol-3-amine at 1 uM after 30 mins by LC-MS analysis; assay type: ADME; details: 0.5 h
[6] = biological target: Cytochrome P450 3A4 (Homo sapiens, UniProt P08684); assay: Activity of human recombinant CYP3A4 expressed in insect BTI-TN-5B1-4 cell microsomes assessed as enzyme-mediated drug metabolism treated with (S)-1-pyridin-4-yl-4-fluoro-1-(3-(pyrimidin-5-yl)phenyl)-1H-isoindol-3-amine at 2 uM after 30 mins; assay type: ADME; details: bti-tn-5b1-4, 0.5 h
Sequence of Cytochrome P450 3A4 (P08684 whole entry): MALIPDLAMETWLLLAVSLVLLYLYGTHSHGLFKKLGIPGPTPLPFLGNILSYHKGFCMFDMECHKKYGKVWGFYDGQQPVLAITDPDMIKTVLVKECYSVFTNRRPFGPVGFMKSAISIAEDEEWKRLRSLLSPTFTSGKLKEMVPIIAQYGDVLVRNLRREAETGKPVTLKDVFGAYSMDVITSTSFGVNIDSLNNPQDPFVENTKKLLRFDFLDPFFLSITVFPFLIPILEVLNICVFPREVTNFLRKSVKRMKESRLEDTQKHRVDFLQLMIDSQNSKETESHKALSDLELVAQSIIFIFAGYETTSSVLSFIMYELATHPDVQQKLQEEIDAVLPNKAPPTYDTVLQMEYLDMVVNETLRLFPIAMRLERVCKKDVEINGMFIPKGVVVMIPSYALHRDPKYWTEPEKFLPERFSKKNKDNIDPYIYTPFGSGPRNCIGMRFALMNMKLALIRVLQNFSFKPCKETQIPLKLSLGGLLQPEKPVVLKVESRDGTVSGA

[7] = system: Liver microsome; assay: Drug level in human liver microsomes treated with AZD3839 at 1 uM after 30 mins by LC-MS analysis; assay type: ADME; details: 0.5 h
[8] = system: Hepatocyte; assay: Drug level in New Zealand White rabbit hepatocytes treated with [14C]-AZD3839 at 5 uM after 120 mins by LC-MS analysis; assay type: ADME, cell-based, Oryctolagus cuniculus; details: 2 h
[9] = system: Liver microsome; assay: Drug level in Sprague-Dawley rat liver microsomes treated with AZD3839 at 1 uM after 30 mins by LC-MS analysis; assay type: ADME; details: 0.5 h
[10] = system: Liver; assay: Drug level in Sprague-Dawley rat aroclor 1254-induced liver S9 fraction treated with AZD3839 at 100 uM by LC-MS analysis; assay type: ADME, subcellular; details: s9, 100 µM
[11] = Drug level in Sprague-Dawley rat bile treated with [14C]-AZD3839 at 58 umol/kg, po after 48 hrs by LC-MS analysis; assay type: ADME, organism-based; details: in vivo
[12] = Drug excretion in Han Wistar rat feces at 5.8 umol/kg, iv by LC-MS analysis; assay type: ADME, organism-based; details: faeces, read-out: Drug excretion
[13] = Drug metabolism in human hepatocytes assessed as 5-(3-(3-amino-1-(2-(difluoromethyl)pyridin-4-yl)-4-fluoro-1H-isoindol-1-yl)phenyl)pyrimidin-4-ol formation at 5 uM after 120 mins by LC-MS analysis; assay type: ADME, cell-based, Hepatocyte; details: 2 h
[14] = Drug metabolism in human hepatocytes assessed as 1-(3-(3-amino-1-(2-(difluoromethyl)pyridin-4-yl)-4-fluoro-1H-isoindol-1-yl)phenyl)ethane-1,2-diol formation at 5 uM after 120 mins by LC-MS analysis; assay type: ADME, cell-based, Hepatocyte; details: 2 h
[15] = Drug metabolism in Sprague-Dawley rat hepatocytes assessed as (2S,3S,4S,5R,6S)-6-(5-(3-(3-amino-1-(2-(difluoromethyl)pyridin-4-yl)-4-fluoro-1H-isoindol-1-yl)phenyl)-1H-imidazol-1-yloxy)-3,4,5-trihydroxytetrahydro-2H-pyran-2-carboxylic acid formation at 5 uM after 120 mins by LC-MS analysis; assay type: ADME, cell-based, Hepatocyte
[16] = Drug excretion in Han Wistar rat urine at 5.8 umol/kg, iv by LC-MS analysis; assay type: ADME, organism-based; details: read-out: Drug excretion
[17] = Drug metabolism in Sprague-Dawley rat bile assessed as (2S,3S,4S,5R,6S)-6-(5-(3-(3-amino-1-(2-(difluoromethyl)pyridin-4-yl)-4-fluoro-1H-isoindol-1-yl)phenyl)-1H-imidazol-1-yloxy)-3,4,5-trihydroxytetrahydro-2H-pyran-2-carboxylic acid formation at 58 umol/kg, po after 48 hrs by LC-MS analysis; assay type: ADME, organism-based; details: in vivo
[18] = Drug metabolism in human hepatocytes assessed as 5-(3-(3-amino-1-(2-(difluoromethyl)-1-oxidopyridin-4-yl)-4-fluoro-1H-isoindol-1-yl)phenyl)pyrimidine 1-oxide formation at 5 uM after 120 mins by LC-MS analysis; assay type: ADME, cell-based, Hepatocyte; details: 2 h
[19] = Drug metabolism in Sprague-Dawley rat bile assessed as 5-(3-(3-amino-1-(2-(difluoromethyl)pyridin-4-yl)-4-fluoro-1H-isoindol-1-yl)phenyl)-1H-imidazol-1-ol formation at 58 umol/kg, po after 48 hrs by LC-MS analysis; assay type: ADME, organism-based; details: in vivo
[20] = Drug metabolism in human hepatocytes assessed as (S)-4-(3-amino-4-fluoro-1-(3-(pyrimidin-5-yl)phenyl)-1H-isoindol-1-yl)-2-(difluoromethyl)pyridine 1-oxide formation at 5 uM after 120 mins by LC-MS analysis; assay type: ADME, cell-based, Hepatocyte; details: 2 h
[21] = Drug metabolism in New Zealand White rabbit hepatocytes assessed as (S)-5-(3-(3-amino-1-(2-(difluoromethyl)pyridin-4-yl)-4-fluoro-1H-isoindol-1-yl)phenyl)pyrimidine 1-oxide formation at 5 uM after 120 mins by LC-MS analysis; assay type: ADME, cell-based, Oryctolagus cuniculus, Hepatocyte; details: 2 h
[22] = Drug metabolism in human hepatocytes assessed as 5-(3-(3-amino-1-(2-(difluoromethyl)pyridin-4-yl)-4-fluoro-1H-isoindol-1-yl)phenyl)pyrimidin-4(3H)-one formation at 5 uM after 120 mins by LC-MS analysis; assay type: ADME, cell-based, Hepatocyte; details: 2 h
[23] = Drug metabolism in human hepatocytes assessed as (S)-5-(3-(3-amino-1-(2-(difluoromethyl)pyridin-4-yl)-4-fluoro-1H-isoindol-1-yl)phenyl)pyrimidine 1-oxide formation at 5 uM after 120 mins by LC-MS analysis; assay type: ADME, cell-based, Hepatocyte; details: 2 h
[24] = Drug metabolism in New Zealand White rabbit hepatocytes assessed as 1-(3-(3-amino-1-(2-(difluoromethyl)pyridin-4-yl)-4-fluoro-1H-isoindol-1-yl)phenyl)ethane-1,2-diol formation at 5 uM after 120 mins by LC-MS analysis; assay type: ADME, cell-based, Oryctolagus cuniculus, Hepatocyte; details: 2 h
[25] = Drug metabolism in Sprague-Dawley rat hepatocytes assessed as 5-(3-(3-amino-1-(2-(difluoromethyl)-1-oxidopyridin-4-yl)-4-fluoro-1H-isoindol-1-yl)phenyl)pyrimidine 1-oxide formation at 5 uM after 120 mins by LC-MS analysis; assay type: ADME, cell-based, Hepatocyte; details: 2 h
[26] = Drug metabolism in Sprague-Dawley rat hepatocytes assessed as (S)-4-(3-amino-4-fluoro-1-(3-(pyrimidin-5-yl)phenyl)-1H-isoindol-1-yl)-2-(difluoromethyl)pyridine 1-oxide formation at 5 uM after 120 mins by LC-MS analysis; assay type: ADME, cell-based, Hepatocyte; details: 2 h
[27] = Drug metabolism in Sprague-Dawley rat hepatocytes assessed as 5-(3-(3-amino-1-(2-(difluoromethyl)pyridin-4-yl)-4-fluoro-1H-isoindol-1-yl)phenyl)pyrimidin-4-ol formation at 5 uM after 120 mins by LC-MS analysis; assay type: ADME, cell-based, Hepatocyte; details: 2 h
[28] = Drug metabolism in Sprague-Dawley rat hepatocytes assessed as (S)-5-(3-(3-amino-1-(2-(difluoromethyl)pyridin-4-yl)-4-fluoro-1H-isoindol-1-yl)phenyl)pyrimidine 1-oxide formation at 5 uM after 120 mins by LC-MS analysis; assay type: ADME, cell-based, Hepatocyte; details: 2 h
[29] = system: Liver microsome; assay: Drug metabolism in Sprague-Dawley rat liver microsomes assessed as (S)-4-(3-amino-4-fluoro-1-(3-(pyrimidin-5-yl)phenyl)-1H-isoindol-1-yl)-2-(difluoromethyl)pyridine 1-oxide formation at 1 uM after 30 mins by LC-MS analysis; assay type: ADME; details: 0.5 h
[30] = Drug metabolism in Sprague-Dawley rat aroclor 1254-induced liver S9 fraction assessed as (S)-5-(3-(3-amino-1-(2-(difluoromethyl)pyridin-4-yl)-4-fluoro-1H-isoindol-1-yl)phenyl)pyrimidine 1-oxide formation at 100 uM by LC-MS analysis; assay type: ADME, subcellular; details: s9, 100 µM
[31] = Drug metabolism in Sprague-Dawley rat aroclor 1254-induced liver S9 fraction assessed as (S)-4-(3-amino-4-fluoro-1-(3-(pyrimidin-5-yl)phenyl)-1H-isoindol-1-yl)-2-(difluoromethyl)pyridine 1-oxide formation at 100 uM by LC-MS analysis; assay type: ADME, subcellular; details: s9, 100 µM
[32] = Drug metabolism in Sprague-Dawley rat aroclor 1254-induced liver S9 fraction assessed as 5-(3-(3-amino-1-(2-(difluoromethyl)pyridin-4-yl)-4-fluoro-1H-isoindol-1-yl)phenyl)pyrimidin-4(3H)-one formation at 100 uM by LC-MS analysis; assay type: ADME, subcellular; details: s9, 100 µM
[33] = system: Liver microsome; assay: Drug metabolism in human liver microsomes assessed as (S)-4-(3-amino-4-fluoro-1-(3-(pyrimidin-5-yl)phenyl)-1H-isoindol-1-yl)-2-(difluoromethyl)pyridine 1-oxide formation at 1 uM after 30 mins by LC-MS analysis; assay type: ADME; details: 0.5 h
[34] = system: Liver microsome; assay: Drug metabolism in Sprague-Dawley rat liver microsomes assessed as (S)-5-(3-(3-amino-1-(2-(difluoromethyl)pyridin-4-yl)-4-fluoro-1H-isoindol-1-yl)phenyl)pyrimidine 1-oxide formation at 1 uM after 30 mins by LC-MS analysis; assay type: ADME; details: 0.5 h
[35] = system: Liver microsome; assay: Drug metabolism in human liver microsomes assessed as (S)-5-(3-(3-amino-1-(2-(difluoromethyl)pyridin-4-yl)-4-fluoro-1H-isoindol-1-yl)phenyl)pyrimidine 1-oxide formation at 1 uM after 30 mins by LC-MS analysis; assay type: ADME; details: 0.5 h
[36] = Drug excretion in bile duct-cannulated Sprague-Dawley rat bile at 30 umol/kg, iv after 6 hrs by LC-MS analysis; assay type: ADME, organism-based; details: read-out: Drug excretion
[37] = Drug excretion in Sprague-Dawley rat feces at 30 umol/kg, iv after 48 hrs by LC-MS analysis; assay type: ADME, organism-based; details: faeces, read-out: Drug excretion
[38] = Drug excretion in Sprague-Dawley rat urine at 30 umol/kg, iv after 24 hrs by LC-MS analysis; assay type: ADME, organism-based; details: read-out: Drug excretion

NC1=NC(c2cccc(-c3cnc[n+]([O-])c3)c2)(c2cc[n+]([O-])c(C(F)F)c2)c2cccc(F)c21 (stereo not given)
metabolite_detected: Drug metabolism [1] | Drug metabolism [2]

NC1=NC(c2cc[n+]([O-])cc2)(c2cccc(-c3cncnc3)c2)c2cccc(F)c21 (stereo not given)
metabolite_detected: Drug metabolism [3] | Drug metabolism [4] | Drug metabolism [5] | Drug metabolism [6]

NC1=N[C@@](c2cccc(-c3cnc[n+]([O-])c3)c2)(c2ccnc(C(F)F)c2)c2cccc(F)c21
metabolite_detected: Drug metabolism [7] | Drug metabolism [8] | Drug metabolism [9] | Drug metabolism [1] | Drug metabolism [10] | Drug metabolism [2]

NC1=N[C@@](c2cccc(-c3cncnc3)c2)(c2cc[n+]([O-])c(C(F)F)c2)c2cccc(F)c21
metabolite_detected: Drug metabolism [7] | Drug metabolism [9] | Drug metabolism [1] | Drug metabolism [10] | Drug metabolism [2]

NC1=NC(c2cccc(-c3cncn3O)c2)(c2ccnc(C(F)F)c2)c2cccc(F)c21 (stereo not given)
metabolite_detected: Drug metabolism [11]

NC1=NC(c2cccc(C(O)CO)c2)(c2ccnc(C(F)F)c2)c2cccc(F)c21 (stereo not given)
metabolite_detected: Drug metabolism [8] | Drug metabolism [2]

NC1=NC(c2cccc(-c3cncn3O[C@@H]3O[C@H](C(=O)O)[C@@H](O)[C@H](O)[C@H]3O)c2)(c2ccnc(C(F)F)c2)c2cccc(F)c21 (stereo not given in full)
metabolite_detected: Drug metabolism [11] | Drug metabolism [1]

NC1=N[C@](c2ccnc(C(F)F)c2)([14c]2[14cH][14cH][14cH][14c](-c3cncnc3)[14cH]2)c2cccc(F)c21.O=C(O)/C=C/C(=O)O
> 90%: dose excreted [12]
< 1%: dose excreted [16]
metabolite_detected: Drug metabolism [13] | Drug metabolism [14] | Drug metabolism [15] | Drug metabolism [17] | Drug metabolism [18] | Drug metabolism [19] | Drug metabolism [20] | Drug metabolism [21] | Drug metabolism [22] | Drug metabolism [23] | Drug metabolism [24] | Drug metabolism [25] | Drug metabolism [26] | Drug metabolism [27] | Drug metabolism [28]

NC1=NC(c2cc[n+]([O-])cc2)(c2cccc(-c3cnc[n+]([O-])c3)c2)c2cccc(F)c21 (stereo not given)
metabolite_detected: Drug metabolism [4]

NC1=N[C@@](c2cccc(-c3cncnc3)c2)(c2ccnc(C(F)F)c2)c2cccc(F)c21.O=C(O)/C=C/C(=O)O
metabolite_detected: Drug metabolism [29] | Drug metabolism [30] | Drug metabolism [31] | Drug metabolism [32] | Drug metabolism [33] | Drug metabolism [34] | Drug metabolism [35]

[3H]c1cc(-c2c([3H])nc([3H])nc2[3H])cc([C@@]2(c3cc([3H])nc([3H])c3)N=C(N)c3c(F)cccc32)c1
< 10%: dose excreted at 24 h [38]
> 90%: dose excreted at 48 h [37]
55%: dose excreted at 6 h [36]
